From ChEMBL document CHEMBL1201862, “PubChem BioAssay data set” (2004)
Activity calls are given as the source filed them.

What was measured:
[1] = target: T1, Polyadenylate-binding protein 1 (Homo sapiens, UniProt P11940); test: PABP1 MLLE–PAM2 interaction inhibitors, dose response, miRNA deadenylation inhibitor project, biochemical, fluorescence polarization, Cy5-PAM2 peptide, secondary (AID 602260); assay type: functional; details: read-out: IC50_Mean
[2] = target: T1, Polyadenylate-binding protein 1; test: PABP1 MLLE–PAM2 binding inhibitor potency, dose response, biochemical, fluorescence polarization, FITC-PAM2 peptide (AID 602259); assay type: functional; details: read-out: IC50_Mean
[3] = target: T2, Protein skinhead-1 (Caenorhabditis elegans, UniProt P34707); assay type: functional
T2 sequence (P34707 whole entry): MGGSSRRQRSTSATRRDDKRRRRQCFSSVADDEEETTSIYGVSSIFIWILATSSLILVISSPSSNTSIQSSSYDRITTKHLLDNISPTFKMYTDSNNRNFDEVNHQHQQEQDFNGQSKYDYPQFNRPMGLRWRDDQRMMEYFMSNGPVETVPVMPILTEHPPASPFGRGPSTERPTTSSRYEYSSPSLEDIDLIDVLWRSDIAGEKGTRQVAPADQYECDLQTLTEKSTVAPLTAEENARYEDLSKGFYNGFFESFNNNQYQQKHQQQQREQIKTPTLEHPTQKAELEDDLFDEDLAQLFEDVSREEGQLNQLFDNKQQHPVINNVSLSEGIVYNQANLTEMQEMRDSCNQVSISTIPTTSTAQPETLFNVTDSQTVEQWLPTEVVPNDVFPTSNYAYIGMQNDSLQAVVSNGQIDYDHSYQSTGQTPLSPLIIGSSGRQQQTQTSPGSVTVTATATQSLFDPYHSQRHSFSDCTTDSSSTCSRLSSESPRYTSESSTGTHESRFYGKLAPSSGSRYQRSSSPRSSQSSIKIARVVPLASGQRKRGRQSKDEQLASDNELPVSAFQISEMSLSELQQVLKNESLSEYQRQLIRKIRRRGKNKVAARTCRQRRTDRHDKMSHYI

[4] = Shn3 3'UTR reporter inhibitors, dose response, cell-based, Clone20 osteoblasts, firefly luciferase, cherry-picked (AID 624132); assay type: functional;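 further: firefly luciferase luminescence from reporter carrying the Shn3 3'UTR in osteoblasts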
[5] = HepG2 cell cytotoxicity, dose response, cytotoxicity control for Shn3 inhibitor project, CellTiter-Glo, cherry-picked (AID 624134); assay type: functional, cell-based
[6] = control 3'UTR Renilla luciferase suppression, dose response, counter-screen for Shn3 inhibitor project, cell-based, Clone20-Shn3RL, cherry-picked (AID 624133); assay type: functional
[7] = target: T3, High affinity choline transporter 1 (Homo sapiens, UniProt Q9GZV3); test: CHT inhibitors, dose response, cell-based, 5-point CRC, membrane potential dye (AID 504840); assay type: functional
T3 sequence (Q9GZV3 whole entry): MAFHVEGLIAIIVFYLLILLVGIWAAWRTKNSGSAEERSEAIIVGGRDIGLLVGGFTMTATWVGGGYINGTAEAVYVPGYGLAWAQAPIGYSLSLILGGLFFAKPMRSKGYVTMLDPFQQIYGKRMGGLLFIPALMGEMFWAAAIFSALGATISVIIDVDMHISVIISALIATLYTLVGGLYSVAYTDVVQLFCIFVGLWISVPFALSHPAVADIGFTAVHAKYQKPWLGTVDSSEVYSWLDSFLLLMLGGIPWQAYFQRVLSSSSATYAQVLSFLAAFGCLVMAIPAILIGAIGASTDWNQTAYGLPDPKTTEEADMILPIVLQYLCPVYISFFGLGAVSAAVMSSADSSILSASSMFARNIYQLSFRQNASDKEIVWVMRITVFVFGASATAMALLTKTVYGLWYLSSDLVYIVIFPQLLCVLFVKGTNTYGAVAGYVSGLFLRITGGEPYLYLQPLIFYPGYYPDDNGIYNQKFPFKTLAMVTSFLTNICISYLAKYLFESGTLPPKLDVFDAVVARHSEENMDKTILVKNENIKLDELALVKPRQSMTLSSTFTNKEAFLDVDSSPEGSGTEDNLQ

[8] = target: T4, Corticotropin-releasing factor receptor 2/Corticotropin-releasing factor-binding protein (Homo sapiens, UniProt P24387+Q13324); test: Dose Response confirmation of uHTS hits for small molecule antagonists of the CRF-binding protein and CRF-R2 receptor complex.; assay type: functional; details: read-out: IC50_Mean
T4 sequence (Q13324 whole entry): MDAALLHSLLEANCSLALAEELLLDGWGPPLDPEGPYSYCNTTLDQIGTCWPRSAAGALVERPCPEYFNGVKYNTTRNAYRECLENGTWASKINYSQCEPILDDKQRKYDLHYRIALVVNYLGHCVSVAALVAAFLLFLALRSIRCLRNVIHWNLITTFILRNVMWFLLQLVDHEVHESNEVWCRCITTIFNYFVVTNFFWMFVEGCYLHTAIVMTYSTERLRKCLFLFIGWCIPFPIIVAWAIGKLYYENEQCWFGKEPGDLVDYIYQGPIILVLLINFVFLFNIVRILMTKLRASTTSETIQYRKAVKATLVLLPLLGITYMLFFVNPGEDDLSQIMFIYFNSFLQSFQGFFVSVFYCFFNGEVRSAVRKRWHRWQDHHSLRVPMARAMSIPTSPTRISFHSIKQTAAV
T4 sequence (P24387 whole entry): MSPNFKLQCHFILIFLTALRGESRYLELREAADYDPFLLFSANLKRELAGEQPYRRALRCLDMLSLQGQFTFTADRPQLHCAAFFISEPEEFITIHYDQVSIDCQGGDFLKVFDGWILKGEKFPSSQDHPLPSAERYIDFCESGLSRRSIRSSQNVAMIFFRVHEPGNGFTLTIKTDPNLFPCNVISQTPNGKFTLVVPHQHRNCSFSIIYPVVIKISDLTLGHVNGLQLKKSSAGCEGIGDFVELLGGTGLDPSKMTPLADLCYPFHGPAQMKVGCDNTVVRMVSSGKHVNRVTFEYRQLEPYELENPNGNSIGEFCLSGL

[9] = target: T4, Corticotropin-releasing factor receptor 2/Corticotropin-releasing factor-binding protein; test: activators of CRF receptor 2 with binding protein – uHTS hits, confirmation (AID 602473); assay type: functional; details: read-out: EC50_Mean
[10] = HEp-2 cell cytotoxicity, dose response, cytotoxicity control for RSV inhibitor project, HTS (AID 2410); assay type: functional; details: human respiratory syncytial virus
[11] = target: T5, Heat shock factor protein 1 (Mus musculus, UniProt P38532); test: HSF1 potentiators in luciferase reporter cells, confirmation, cell-based, NIH3T3, luminescence, dose retest (AID 435004); assay type: functional;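 further: stress induced by proteasome inhibitor MG132 added 30 min after compound; luciferase reporter driven by HSF1 response element in NIH3T3 cells; actives raise luminescence as potentiators of the MG132 stress response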
T5 sequence (P38532 whole entry): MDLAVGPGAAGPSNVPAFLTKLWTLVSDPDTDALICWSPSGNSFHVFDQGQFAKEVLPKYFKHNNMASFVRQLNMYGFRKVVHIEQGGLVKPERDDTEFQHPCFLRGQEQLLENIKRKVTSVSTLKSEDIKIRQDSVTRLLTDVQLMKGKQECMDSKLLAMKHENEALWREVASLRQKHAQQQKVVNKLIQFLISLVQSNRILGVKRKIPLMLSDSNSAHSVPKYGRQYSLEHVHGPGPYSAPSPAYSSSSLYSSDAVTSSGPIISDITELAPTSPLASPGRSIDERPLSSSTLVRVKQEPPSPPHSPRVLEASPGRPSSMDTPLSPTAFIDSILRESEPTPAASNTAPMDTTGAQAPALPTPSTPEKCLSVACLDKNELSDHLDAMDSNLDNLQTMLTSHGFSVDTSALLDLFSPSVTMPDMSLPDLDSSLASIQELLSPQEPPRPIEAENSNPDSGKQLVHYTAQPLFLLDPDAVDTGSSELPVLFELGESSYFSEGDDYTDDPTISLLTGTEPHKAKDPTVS

[12] = inhibitors of intracellular T. cruzi replication, confirmation, NIH3T3 host cells, beta-gal luminescence (AID 2044); assay type: functional, cell-based;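 further: intracellular parasites grown in NIH/3T3 mouse fibroblasts as host cells; luminescent beta-galactosidase reporter signal from transgenic T. cruzi replicating inside host cells; inhibitors lower the luminescence signal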
[13] = cytotoxicity toward NIH3T3 fibroblasts, dose response, counter-screen, cell-based, ATP luminescence, mouse fibroblasts (AID 2010); assay type: functional;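 further: cells exposed to compound for about 90 hours before reading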
[14] = target: Paired box protein Pax-8 (Homo sapiens, UniProt Q06710); test: inhibitors of PAX8-driven TPO luciferase reporter, dose response, RMG-I cells, cherry-pick (AID 687027); assay type: functional, cell-based;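 further: luciferase reporter driven by Pax8 target thyroperoxidase promoter measured by SteadyGlo luminescence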
Chain of Paired box protein Pax-8 (Q06710 whole entry, the tested form may be a part): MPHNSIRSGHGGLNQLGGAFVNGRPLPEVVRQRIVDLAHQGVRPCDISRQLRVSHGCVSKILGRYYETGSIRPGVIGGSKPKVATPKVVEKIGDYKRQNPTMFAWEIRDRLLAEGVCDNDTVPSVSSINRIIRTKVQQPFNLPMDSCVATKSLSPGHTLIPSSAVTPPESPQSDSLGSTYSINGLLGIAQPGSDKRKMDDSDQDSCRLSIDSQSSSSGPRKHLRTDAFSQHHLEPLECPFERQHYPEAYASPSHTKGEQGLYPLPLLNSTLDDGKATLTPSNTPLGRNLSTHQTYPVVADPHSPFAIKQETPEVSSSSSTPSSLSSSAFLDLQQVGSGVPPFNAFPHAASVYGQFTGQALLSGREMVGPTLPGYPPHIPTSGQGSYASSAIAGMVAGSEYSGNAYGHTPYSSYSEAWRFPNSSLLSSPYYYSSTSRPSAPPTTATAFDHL

[15] = inhibitors of HIV Env-driven cell fusion, dose response, cherry-pick (AID 652057); assay type: functional, cell-based

T1 sequence (P11940 whole entry): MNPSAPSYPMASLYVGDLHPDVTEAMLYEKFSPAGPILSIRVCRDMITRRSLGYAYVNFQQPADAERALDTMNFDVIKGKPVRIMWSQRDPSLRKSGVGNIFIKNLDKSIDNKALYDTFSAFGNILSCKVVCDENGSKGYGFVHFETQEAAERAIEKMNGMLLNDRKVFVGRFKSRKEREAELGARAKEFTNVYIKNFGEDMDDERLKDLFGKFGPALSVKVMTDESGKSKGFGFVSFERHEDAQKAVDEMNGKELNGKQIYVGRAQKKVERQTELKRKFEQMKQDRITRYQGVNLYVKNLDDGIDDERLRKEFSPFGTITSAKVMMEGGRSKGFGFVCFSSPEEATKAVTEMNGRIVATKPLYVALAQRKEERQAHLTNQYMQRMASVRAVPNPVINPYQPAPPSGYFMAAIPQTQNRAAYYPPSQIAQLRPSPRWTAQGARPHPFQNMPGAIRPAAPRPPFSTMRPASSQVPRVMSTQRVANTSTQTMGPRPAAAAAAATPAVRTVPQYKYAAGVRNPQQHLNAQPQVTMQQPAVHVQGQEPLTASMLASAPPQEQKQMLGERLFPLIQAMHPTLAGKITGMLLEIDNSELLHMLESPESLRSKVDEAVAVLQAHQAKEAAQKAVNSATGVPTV

OC1(c2ccc(Br)cc2)C[N+](c2ccccc2)=C2SCCN21 (centres undefined)
IC50 [1]: > 66 µM (inactive)
IC50 [2]: > 66 µM (inactive)

FC(F)(F)c1cnc2c(-c3ccc(Cl)cc3Cl)noc2c1
IC50 [3]: > 100 µM (inactive)

Cc1ccc(S(=O)(=O)Nc2ccc3ncccc3c2)cc1
AC50 [4]: 2.2 µM (active)
AC50 [5]: 45.9 µM (active)
AC50 [6]: 29.3 µM (active)

c1ccc2c(c1)OCCc1c-2[nH]c2ccccc12
IC50 [3]: > 100 µM (inactive)

COc1ccccc1C1C(C(=O)NCc2ccccc2)=C(C)Nc2ncnn21 (centres undefined)
IC50 [3]: > 100 µM (inactive)

CC1CCCCC1NC(=O)c1cccc(N2C(=O)C3C4C=CC(C4)C3C2=O)c1 (centres undefined)
IC50 [7]: 14.5 µM (active)

O=C(NC(=S)Nc1ccccc1O)c1ccccc1Cl
IC50 [1]: > 66 µM (inactive)
IC50 [2]: > 66 µM (inactive)

CC(C)(C)c1nnc(N=C(S)Nc2ccccc2)s1
IC50 [1]: > 66 µM (inactive)
IC50 [2]: > 66 µM (inactive)

COc1ccc(C2=NS(=O)(=O)N(C)C(C(=O)N3CCc4ccccc4C3)=C2)cc1OC
AC50 [4]: 4.99 µM (active)
AC50 [5]: 69.3 µM (active)
AC50 [6]: 4.43 µM (active)

Cc1ccc(C(=O)N2c3ccccc3N(Cc3ccccc3)C(=O)C2(C)C)cc1
IC50 [8]: 5.66 µM (active)
AC50 [4]: 6.92 µM (active)
AC50 [5]: > 70 µM (inactive)
EC50 [9]: > 53 µM (inactive)
AC50 [6]: 4.11 µM (active)

O=C(O)c1cnn(-c2nc(-c3cccc([N+](=O)[O-])c3)cs2)c1C(F)(F)F
CC50 [10]: 37.9 µM (active)
EC50 [11]: > 260 µM (inactive)
IC50 [7]: 11 µM (active)

Clc1ccc(OCCSc2ncccn2)cc1
IC50 [3]: 43.9 µM (active)

CC1=C(C(=O)c2ccccc2)C(c2cn(-c3ccccc3)nc2-c2ccc(Cl)cc2)NC(S)=N1 (centres undefined)
EC50 [12]: 2.33 µM (active)
EC50 [13]: > 30 µM (not active)
IC50 [3]: > 100 µM (inactive)

CC(c1ccccc1)N1CCc2[nH]c(=S)[nH]c(=O)c2C1 (centres undefined)
IC50 [1]: > 66 µM (inactive)
IC50 [2]: > 66 µM (inactive)

NC(=O)COC(=O)c1ccc(Cl)c(S(=O)(=O)N2CCN(c3ccc(F)cc3)CC2)c1
IC50 [7]: 13.8 µM (active)

Cc1nn2cc(-c3ccc(Cl)cc3)nc2s1
IC50 [3]: 15.6 µM (active)

CC1CCN(Cc2ccc(-c3nnn(CC(=O)Nc4ccccc4Cl)n3)cc2)CC1
AC50 [4]: 1.77 µM (active)
AC50 [5]: > 70 µM (inactive)
AC50 [6]: 3.25 µM (active)

Cc1cccc(NC2SC(=O)NC2=O)c1 (centres undefined)
IC50 [1]: > 66 µM (inactive)
IC50 [2]: > 66 µM (inactive)

CCOC(=O)c1c(-c2ccccc2)csc1NC(=O)C1CCCO1 (centres undefined)
IC50 [1]: > 66 µM (inactive)
IC50 [2]: > 66 µM (inactive)

CN(c1cccc(NC(=O)CN(c2ccc(C34CC5CC(CC(C5)C3)C4)cc2)S(C)(=O)=O)c1)S(C)(=O)=O
EC50 [12]: 1.6 µM (active)
EC50 [13]: 7.81 µM (active)
AC50 [4]: 7.58 µM (active)
AC50 [5]: 31.2 µM (active)
AC50 [6]: 7.86 µM (active)

Nc1n[nH]c(Sc2c([N+](=O)[O-])cc(C(F)(F)F)cc2[N+](=O)[O-])n1
IC50 [1]: > 66 µM (inactive)
IC50 [2]: > 66 µM (inactive)

CCCCN(c1nc2ccccc2nc1Cl)S(=O)(=O)c1ccc(C)cc1
AC50 [4]: 7.22 µM (active)
AC50 [5]: > 70 µM (inactive)
AC50 [6]: 30.7 µM (active)

COc1ccc(N2CCN(C(=O)CN3CCN(c4nc(-c5ccc(F)cc5)cs4)CC3)CC2)cc1
AC50 [4]: 1.81 µM (active)
AC50 [5]: 58 µM (active)
AC50 [6]: 1.16 µM (active)

CC(=O)c1cccc(NC(=O)N2CCCC2C(=O)Nc2c(C)cccc2C)c1 (centres undefined)
IC50 [3]: > 100 µM (inactive)

COc1cc2sc3ccc(C#Cc4ccc(N)cc4)cc3c(=O)c2cc1OC
IC50 [3]: > 100 µM (inactive)

COc1ccc(NC(=S)N/N=C2\CC(C)(C)Oc3ccc(OC)cc32)cc1
IC50 [1]: > 66 µM (inactive)
IC50 [2]: > 66 µM (inactive)

C[C@H](CO)N1C[C@H](C)[C@@H](CN(C)Cc2ccc(C(F)(F)F)cc2)Oc2ccc(NS(=O)(=O)c3ccc(F)cc3)cc2CC1=O
AC50 [14]: 11.9 µM (active)

C[C@@H]1CN([C@H](C)CO)C(=O)c2cc(NS(=O)(=O)c3ccc(F)cc3)ccc2O[C@H]1CN(C)Cc1ccc(C(F)(F)F)cc1
AC50 [15]: 33.9 µM (active)

C[C@@H]1CCCCO[C@H](CN(C)S(=O)(=O)c2ccc(Cl)cc2)[C@@H](C)CN([C@@H](C)CO)C(=O)c2cc(NC(=O)Nc3ccc(C(F)(F)F)cc3)ccc2O1
AC50 [14]: 2.87 µM (active)
